{
  "source": "paper PMC7811009",
  "about": "“Oxytocin modulates local topography of human functional connectome in healthy men at rest” (Communications Biology, 2021)",
  "key": {"[1]": {"test_system": "human functional connectome at rest", "assay": "Resting-state BOLD-fMRI: mean brain-wide functional connectivity (macroscale)", "format": "in vivo", "details": "repeated measures one-way ANOVA, F(2.271, 34.070) = 0.774, p = 0.484", "protocol": "(§1) Each experimental session began with the treatment administration protocol that lasted about 22 min in total (Fig. 8, lower panel). After drug administration, participants were guided to the MRI scanner, where eight pulsed continuous arterial spin labelling scans (each lasting approx. eight minutes) were acquired, spanning 15–104 min post-dosing (data reported elsewhere[11]). The 8-min resting state BOLD-fMRI scan reported herein was obtained at about 57 ± 3.38 min post-dosing. Participants were instructed to lie still and maintain their gaze on a centrally placed fixation cross during scanning. We assessed participants’ levels of alertness (anchors: alert-drowsy) and excitement (anchors: excited-calm) using visual analogue scales (0–100) at three different time-points during the scanning session to evaluate subjective drug effects across time (data reported elsewhere[11]).\nMRI data were acquired on a 3 T MR750 system (GE Healthcare, Waukesha, Wisconsin) with a 32-channel head coil. Functional data was acquired using a shot multi-echo echo planar imaging (EPI) sequence (TR = 2500 ms, TE’s = 12, 28, 44 and 60 ms, FA = 80°, FOV = 240 × 240 mm^2, Matrix = 64 × 64, Slice thickness = 3 mm, 32 continuous descending axial slices, resolution = 3.75 × 3.75 × 3 mm). […] The resting state fMRI scan lasted 8 min 10 s, with collection of a total of 192 volumes for each echo. […]"}, "[2]": {"test_system": "amygdala/parahippocampal gyrus and anterior cingulate", "details": "same dose of intravenous oxytocin (10 IU), same cohort; cited from earlier work", "source_text": "Our second key finding was the observation that the regional effects of exogenous oxytocin, compared to placebo, vary as a function of the route/method of administration. Particularly striking was the observation that the intravenous administration of oxytocin induced widespread changes in regional functional connectivity across many areas potentially relevant to explaining the effects of intranasal oxytocin on human behaviour and which have been classically ascribed to direct nose-to-brain transport. One of these areas is the amygdala, where we found decreased betweenness-centrality after int ..."}, "[3]": {"test_system": "human functional connectome at rest", "assay": "Resting-state BOLD-fMRI, graph theory: nodal betweenness-centrality (mesoscale); 40 IU intranasal (spray/nebuliser) or 10 IU intravenous, about 57 min post-dosing, 16 healthy men", "format": "in vivo", "details": "post-hoc paired t-tests, FDR", "protocol": "as §1\nWe used the CONN functional connectivity toolbox[97] to generate brain-wide functional connectivity matrices for each subject/session. […] The default atlas of the CONN toolbox includes 132 non-overlapping ROIs spanning cortical and subcortical areas and the cerebellum using a combination of the cortical and subcortical areas from the FSL Harvard-Oxford atlas and of the cerebellar areas of the Automatic Anatomical Labelling atlas (Supplementary data 1 for a detailed description). […] Finally, we normalized our correlation measures to z-scores using the Fisher’s r-z transform per subject/session.\nWe then used our z-transformed connectivity matrices to construct brain graphs representing a functional connectivity network for each subject/session. We used an undirected signed weighted approach in which we kept information about the sign and weight of each of the connections between the nodes (ROIs) of our network, without making assumptions about the direction of this relationship. These connectivity matrices represent fully connected networks, where each node corresponds to each of the ROIs we used to build the functional connectivity matrices and each edge represents the z-transformed value of functional connectivity between a pair of nodes. […] We used the fully weighted networks to calculate equi-sparse networks by retaining a fixed percentage (K) of the total amount of possible edges. In order to determine systematic pharmacological effects on the network’s topological organization that are not dependent on the choice of an arbitrary threshold, we chose a range of sparsity thresholds from 5 to 34%, with steps of 1%, based on previous evidence showing the characteristic small-world behaviour of human brain networks is most consistently observed for this range[30]. For each network and sparsity level, we used the MATLAB functions provided with the Brain Connectivity Toolbox[16] to compute four global and regional network metrics: global efficiency, node degree, local efficiency and betweenness-centrality. Details on the calculation of each of these metrics have been described elsewhere. The combination of these four metrics allows us to test for treatment effects on connectivity at both global and regional levels, taking into account complementary aspects of functional integration of information exchange within the brain network. […]\nFor each of the graph metrics analysed, we summarized the different values over the range of thresholds using the area under the curve (AUC), instead of applying multiple testing for each metric/threshold. […]"}},
  "data": [
    {"compound": "CC[C@H](C)[C@@H]1NC(=O)[C@H](Cc2ccc(O)cc2)NC(=O)[C@@H](N)CSSC[C@@H](C(=O)N2CCC[C@H]2C(=O)N[C@@H](CC(C)C)C(=O)NCC(N)=O)NC(=O)[C@H](CC(N)=O)NC(=O)[C@H](CCC(N)=O)NC1=O", "note": "[oxytocin]", "values": [
      {"measurement": "Differences in mean functional connectivity across the four treatment conditions", "setting": "[1]", "value": "no significant differences"},
      {"measurement": "Effect on rCBF", "setting": "[2]", "value": "decreases rCBF in the amygdala/parahippocampal gyrus and in the anterior cingulate"},
      {"measurement": "Nodes with decreased betweenness-centrality compared to placebo", "setting": "[3]; intravenous, 10 IU", "value": "decreased the betweenness-centrality of the right amygdala and the anterior parahipoccampal gyrus"},
      {"measurement": "Nodes with increased betweenness-centrality compared to placebo", "setting": "[3]; intravenous, 10 IU", "value": "increased the betweenness-centrality of the right and left occipital poles, left postcentral gyrus, right supramarginal gyrus and left and right cerebellum (areas 4–5 and area 10, respectively)"},
      {"measurement": "Nodes with increased betweenness-centrality compared to placebo", "setting": "[3]; nebuliser, 40 IU intranasal", "value": "increased the betweenness-centrality of the temporo-occipital area of the left middle temporal gyrus and the left cerebellum (area 7)"},
      {"measurement": "Nodes with decreased betweenness-centrality compared to placebo", "setting": "[3]; spray, 40 IU intranasal", "value": "decreased the betweenness-centrality of the precuneus, right posterior supramarginal and middle temporal gyri, the left anterior middle temporal gyrus and the right cerebellum (area 9)"},
      {"measurement": "Nodes with increased betweenness-centrality compared to placebo", "setting": "[3]; spray, 40 IU intranasal", "value": "increased the betweenness-centrality of the right orbitofrontal cortex, left lateral occipital cortex, right temporal occipital fusiform cortex and left occipital pole"}
    ]}
  ]
}
